Earlier results in patent US8618066B1 (priority 2003, dated 2013).
Entries after “also recorded” stand apart in the source; their conditions may differ. Like-named read-outs stand apart in the source and are kept apart here. No end group written: not given here.

Tested on: Gram+ & Gram− bacteria, fungi, virus, mammalian/cancer cells
Conditions: cited from earlier work
[1] = classes of organisms/cells the peptide is active against

Substance	Activity	Activity [1]
SEQ ID No. 32: synthetic antifungal peptide, Table 1 (FFKLRF)	Fungi	
AMP1 (MJ-AMP1): peptide, source Garden four-o'clock (QCIGNGGRCNENVGPPYCCSGFCLRQPGQGYGYCKNR; antimicrobial peptidic agent1 (MJ-antimicrobial peptidic agent1); listed as Mirabilis jalapa)	Gram+, Fungi	
Parabutoporin: peptide, source Scorpion (FKLGSFLKKAWKSKLAKKLRAKGKEMLKDYAKGLLEGGSEEVPGQ; Parabutoporin; listed as Parabuthus schlechteri)		Gram+ & Gram−, Fungi,; also recorded: Mammalian cells
Alpha-basrubrin (Fragment): source Malabar spinach (GADFQECMKEHSQKQHQHQG; Alpha-basrubrin (Fragment); listed as Basella alba)	Virus, Fungi	
Dolabellanin B2: peptide, source Sea hare (SHQDCYEALHKCMASHSKPFSCSMKFHMCLQQQ; Dolabellanin B2; listed as Dolabella auricularia)	Gram+ & Gram−, Fungi	
SEQ ID No. 30: synthetic antifungal peptide, Table 1 (WLRF)	Fungi	
SEQ ID No. 183: synthetic antifungal peptide, Table 1 (YMPQGPKLQLWH)	Fungi	
Histatin 5: peptide, source Human (DSHAKRHHGYKRKFHEKHHSHRGY; Histatin 5; listed as Homo sapiens)	Gram+ & Gram−, Fungi	
RQRVEELSKFSKKGAAARRRK [Misgurin]	Gram+ & Gram−, Fungi	
SEQ ID No. 39: synthetic antifungal peptide, Table 1 (FHFKLRF)	Fungi	
Ranalexin-1CB: peptide, source Gree frog (FLGGLMKAFPAIICAVTKKC; Rana clamitans; Ranalexin-1CB)	Gram+ & Gram−, Fungi	
Nigrocin 2: peptide, source Rana nigromaculata (GLLSKVLGVGKKVLCGVSGLC; Nigrocin 2; listed as Rana nigromaculata)	Gram+ & Gram−, Fungi	
Hepcidin 20: peptide, source Human (ICIFCCGCCHRSKCGMCCKT; Hepcidin 20; listed as Homo sapiens)	Fungi	
Seminalplasmin: peptide, source Bovine (SDEKASPDKHHRFSLSRYAKLANRLANPKLLETFLSKWIGDRGNRSVK; Seminalplasmin; listed as Bos taurus)	Gram+ & Gram−, Fungi,; also recorded: Mammalian cells	
Neutrophil defensin 1 (HANP-1): peptide, source Golden hamster (VTCFCRRRGCASRERHIGYCRFGNTIYRLCCRR; Neutrophil defensin 1 (HANP-1); listed as Mesocricetus auratus)	Gram+, Fungi	
Cecropin B: peptide, source Chinese oak silk moth (KWKIFKKIEKVGRNIRNGIIKAGPAVAVLGEAKAL; Cecropin B; listed as Antheraea pernyi)	Gram+ & Gram−, Fungi	
Lactoferricin B: peptide, source Bovine (FKCRRWQWRMKKLGAPSITCVRRAF; Lactoferricin B; listed as Bos taurus)	Gram+ & Gram−, Virus, Fungi,	
Hexapeptide: peptide, source Bovine (RRWQWR; hexapeptide; listed as Bos taurus)	Gram+ & Gram−, Virus, Fungi,	
Ib-AMP3: peptide, source Impatiens balsamina (RHRCCAWGPGRKYCKRWC; Ib-antimicrobial peptidic agent3; listed as Impatiens balsamina)	Gram+, Fungi	
Histatin 1: peptide, source Crab eating macaque (DSHEERHHGRHGHHKYGRKFHEKHHSHRGYRSNYLYDN; Histatin 1; listed as Macaca fascicularis)	Gram+ & Gram−, Fungi	
HNP-2 Defensin: peptide, source Human (CYCRIPACIAGERRYGTCIYQGRLWAFCC; HNP-2 Defensin; listed as Homo sapiens)	Gram+ & Gram−, Virus, Fungi	
Lingual antimicrobial peptide: peptide, source Bovine (GFTQGVRNSQSCRRNKGICVPIRCPGSMRQIGTCLGAQVKCCRRK; Lingual antimicrobial peptide; listed as Bos taurus)	Gram+ & Gram−, Fungi	
HNP-3 Defensin: peptide, source Human	Gram+ & Gram−, Virus, Fungi	
SEQ ID No. 195: synthetic antifungal peptide, Table 1 (WCQQKGQPCW; listed as Fusarium graminearum)	Fungi	
GNCP-1: peptide, source Guinea pig (RRCICTTRTCRFPYRRLGTCIFQNRVYTFCC; GNCP-1; listed as Cavia cutleri)	Gram+ & Gram−, Virus, Fungi	
FRLHF [SEQ ID No. 199]	Gram+ & Gram−, Fungi	
SEQ ID No. 45: synthetic antifungal peptide, Table 1 (TFKLRF)	Fungi	

Substance	Activity	Activity [1]
SEQ ID No. 181: synthetic antifungal peptide, Table 1 (YNLEPQGPKLQLWHW)	Fungi	
Histone H2b-3 (HLP-3) (Fragment): source Rainbow trout (PDPAKTAPKKKSKKAVT; Oncorhynchus mykiss; Histone H2B-3(HLP-3)(Fragment))	Fungi	
SEQ ID No. 177: synthetic antifungal peptide, Table 1 (GYFSYPHGNLF; listed as Glomerella cingulata)	Fungi	
Pseudo-hevein (Minor hevin): peptide, source Para rubber tree (EQCGRQAGGKLCPNNLCCSQYGWCGSSDDYCSPSKNCQSNCKGGG; Pseudo-hevein (Minor hevein); listed as Hevea brasiliensis)	Fungi	
Androctonin: peptide, source Androctonus Australis (RSVCRQIKICRRRGGCYYKCTNRPY; listed as Androctonus australis)		Gram+ & Gram−, Fungi
BMAP-28: peptide, source Bovine (GGLRSLGRKILRAWKKYGPIIVPIIRIG; BMAP-28; listed as Bos taurus)	Gram+ & Gram−, Fungi	
SEQ ID No. 186: synthetic antifungal peptide, Table 1 (MPSTAASTRVPQTTMNFNGYCVVM; listed as Neurospora crassa)	Fungi	
Tritrpticin: peptide, source Synthetic (VRRFPWWWPFLRR; Synthetic Tritrpticin)	Gram+ & Gram−, Fungi	
Dhvar4: peptide, source Synthesis (KRLFKKLLFSLRKY; Synthesis dhvar4)		Gram+ & Gram−, Fungi
Tachystatin A: peptide, source Horseshoe Crab (YSRCQLQGFNCVVRSYGLPTIPCCRGLTCRSYFPGSTYGRCQRY; Tachystatin A Peptide; listed as Tachypleus tridentatus)	Gram+ & Gram−, Fungi	
Hepcidin 25: peptide, source Human (DTHFPICIFCCGCCHRSKCGMCCKT; Hepcidin 25; listed as Homo sapiens)	Fungi	
SEQ ID No. 44: synthetic antifungal peptide, Table 1 (MFKLRF)	Fungi	
Opistoporin 1: peptide, source African yellow leg scorpion (GKVWDWIKSTAKKLWNSEPVKELKNTALNAAKNLVAEKIGATPS; Opistoporin 1; listed as Opistophthalmus carinatus)		Gram+ & Gram−, Fungi,; also recorded: Mammalian cells
Thanatin: peptide, source Podisus maculiventris (GSKKPVPIIYCNRRTGKCQRM; listed as Podisus maculiventris)	Gram+ & Gram−, Fungi	
SEQ ID No. 180: synthetic antifungal peptide, Table 1 (YNLEDHPQGDHPKLQLWHW)	Fungi	
NP-3A defensin: peptide, source Rabbit (GICACRRRFCPNSERFSGYCRVNGARYVRCCSRR; NP-3A defensin; listed as Oryctolagus cuniculus)	Gram+ & Gram−, Virus, Fungi	
Protegrin 3: peptide, source Pig (RGGGLCYCRRRFCVCVGR; Protegrin 3; listed as Sus scrofa)	Gram+ & Gram−, Virus, Fungi	
SEQ ID No. 189: synthetic antifungal peptide, Table 1 (QWCRIHGQSCW; listed as Neurospora crassa)	Fungi	
SEQ ID No. 46: synthetic antifungal peptide, Table 1 (QFKLRF)	Fungi	
SEQ ID No. 182: synthetic antifungal peptide, Table 1 (YMPQGPKLQLFHW)	Fungi	
SEQ ID No. 25: synthetic antifungal peptide, Table 1 (FRF)	Fungi	
Ponericin G!: peptide, source Ponerine ant (GWKDWAKKAGGWLKKKGPGMAKAALKAAMQ; Ponericin G1; listed as Pachycondyla goeldii)		Gram+ & Gram−, Fungi
Antimicrobial peptide 1: peptide, source Common ice plant (AKCIKNGKGCREDQGPPFCCSGFCYRQVGWARGYCKNR; Antimicrobial peptide 1; listed as Mesembryanthemum crystallinum)	Gram+ & Gram−, Fungi	
PW2: peptide, source Synthetic (HPLKQYWWRPSI; Synthetic PW2)	Fungi	
AFP1: peptide, source Turnip (QKLCERPSGTWSGVCGNNNACKNQCIN; AFP1; listed as Brassica rapa)	Fungi	
BMAP-34: peptide, source Bovine (GLFRRLRDSIRRGQQKILEKARRIGERIKDIFRG; BMAP-34; listed as Bos taurus)	Gram+ & Gram−, Fungi	
